Common to all, as to assay: relative viability (nuclei count vs DMSO), 5 days (fraction); higher = more cells survive
Compound in the assay “Bromopyruvate + OSI-027”: C(C(=O)C(=O)O)Br [Bromopyruvate] + COc1cccc2cc(-c3nc([C@H]4CC[C@H](C(=O)O)CC4)n4ncnc(N)c34)[nH]c12 [OSI-027] (partner 0.5 µM)
In short, it runs like this: (§1)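 Cells from lung cancer lines were seeded into 1536-well plates and, one day later, dosed by pin tool. Treatments were either a single drug or a fixed dose of an anchor drug with five library-drug doses (not always all listed) in √10 steps. After 5 days, nuclei were stained in a one-step fixation (final 0.05% Triton X-100, 1% formaldehyde, 1 ug/ml Hoechst) and counted on 4× images, and relative viability is the treated-to-vehicle nuclei ratio, as the median of duplicate plates.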

Compound in assay [1]: C(C(=O)C(=O)O)Br [Bromopyruvate] + Cc1cc(Nc2cc(N3CCN(C)CC3)nc(Sc3ccc(NC(=O)C4CC4)cc3)n2)n[nH]1 [Tozasertib] (partner 0.1 µM)
Put shortly: as §1

Compound in the assay “Bromopyruvate + AZD7762”: C(C(=O)C(=O)O)Br [Bromopyruvate] + NC(=O)Nc1cc(-c2cccc(F)c2)sc1C(=O)N[C@H]1CCCNC1 [AZD7762] (partner 0.2 µM)
Put shortly:
as §1

Compound in the assay “Bicalutamide + Alpelisib”: CC(O)(CS(=O)(=O)c1ccc(F)cc1)C(=O)Nc1ccc(C#N)c(C(F)(F)F)c1 [Bicalutamide] + Cc1nc(NC(=O)N2CCC[C@H]2C(N)=O)sc1-c1ccnc(C(C)(C)C(F)(F)F)c1 [Alpelisib] (partner 2 µM)
In short, it runs like this: as §1

In the case of NCI-H322M, the relative viability came to 0.515 with Bromopyruvate + OSI-027 (first compound 1 µM); 0.58 with Bromopyruvate + OSI-027 (first compound 3.162 µM); 0.576 in the assay with Bromopyruvate + OSI-027 (first compound 10 µM); 0.523 with Bromopyruvate + OSI-027 (first compound 31.62 µM); 0.599 in the assay with Bromopyruvate + OSI-027 (first compound 100 µM); 0.433 in assay [1] (first compound 1 µM). For the same cell line, the relative viability is 0.546 in assay [1] (first compound 3.162 µM); 0.495 in assay [1] (first compound 10 µM); 0.461 in assay [1] (first compound 31.62 µM); 0.484 in assay [1] (first compound 100 µM); 0.623 in the assay with Bromopyruvate + AZD7762 (first compound 1 µM); 0.58 with Bromopyruvate + AZD7762 (first compound 3.162 µM). The relative viability in the assay with Bromopyruvate + AZD7762 (first compound 10 µM) is 0.523; in the assay with Bromopyruvate + AZD7762 (first compound 31.62 µM), 0.581; in the assay with Bromopyruvate + AZD7762 (first compound 100 µM), 0.628; in the assay with Bicalutamide + Alpelisib (first compound 0.08 µM), 0.948; with Bicalutamide + Alpelisib (first compound 0.253 µM), 0.772; in the assay with Bicalutamide + Alpelisib (first compound 0.8 µM), 0.882. Also, in the assay with Bicalutamide + Alpelisib (first compound 2.53 µM), the relative viability amounted to 0.74.
As for NCI-H1975, the relative viability was found to be 0.742 in the assay with Bromopyruvate + OSI-027 (first compound 1 µM); 0.912 with Bromopyruvate + OSI-027 (first compound 3.162 µM); 0.687 with Bromopyruvate + OSI-027 (first compound 10 µM); 0.731 with Bromopyruvate + OSI-027 (first compound 31.62 µM); 0.718 with Bromopyruvate + OSI-027 (first compound 100 µM); 0.733 in assay [1] (first compound 1 µM). The relative viability stood at 0.811 in assay [1] (first compound 3.162 µM); 0.806 in assay [1] (first compound 10 µM); 0.729 in assay [1] (first compound 31.62 µM); 0.646 in assay [1] (first compound 100 µM); 0.825 in the assay with Bromopyruvate + AZD7762 (first compound 1 µM); 0.691 in the assay with Bromopyruvate + AZD7762 (first compound 3.162 µM). Besides, the relative viability in the assay with Bromopyruvate + AZD7762 (first compound 10 µM) amounted to 0.721; in the assay with Bromopyruvate + AZD7762 (first compound 31.62 µM) it was 0.785; with Bromopyruvate + AZD7762 (first compound 100 µM), 0.703; with Bicalutamide + Alpelisib (first compound 0.08 µM) it was 0.642; with Bicalutamide + Alpelisib (first compound 0.253 µM), 0.615; with Bicalutamide + Alpelisib (first compound 0.8 µM), 0.795. Also, the relative viability with Bicalutamide + Alpelisib (first compound 2.53 µM) was determined as 0.526.
Regarding NCI-H1944, the relative viability in the assay with Bromopyruvate + OSI-027 (first compound 1 µM) was determined as 0.462; with Bromopyruvate + OSI-027 (first compound 3.162 µM), 0.459; with Bromopyruvate + OSI-027 (first compound 10 µM) it was 0.49; in the assay with Bromopyruvate + OSI-027 (first compound 31.62 µM), 0.415; in the assay with Bromopyruvate + OSI-027 (first compound 100 µM), 0.464; in assay [1] (first compound 1 µM) it was 0.224. Besides, the relative viability came out at 0.266 in assay [1] (first compound 3.162 µM); 0.243 in assay [1] (first compound 10 µM); 0.283 in assay [1] (first compound 31.62 µM); 0.273 in assay [1] (first compound 100 µM); 0.579 in the assay with Bromopyruvate + AZD7762 (first compound 1 µM); 0.521 in the assay with Bromopyruvate + AZD7762 (first compound 3.162 µM). Also, the relative viability with Bromopyruvate + AZD7762 (first compound 10 µM) came to 0.576; in the assay with Bromopyruvate + AZD7762 (first compound 31.62 µM), 0.514; in the assay with Bromopyruvate + AZD7762 (first compound 100 µM), 0.54; with Bicalutamide + Alpelisib (first compound 0.08 µM) it was 0.852; with Bicalutamide + Alpelisib (first compound 0.253 µM), 0.737; with Bicalutamide + Alpelisib (first compound 0.8 µM), 0.869. Further, the relative viability with Bicalutamide + Alpelisib (first compound 2.53 µM) was determined as 0.851.
Regarding LU99A, the relative viability was 0.288 in the assay with Bromopyruvate + OSI-027 (first compound 1 µM); 0.27 in the assay with Bromopyruvate + OSI-027 (first compound 3.162 µM); 0.386 with Bromopyruvate + OSI-027 (first compound 10 µM); 0.278 with Bromopyruvate + OSI-027 (first compound 31.62 µM); 0.317 with Bromopyruvate + OSI-027 (first compound 100 µM); 0.344 in assay [1] (first compound 1 µM). The relative viability in assay [1] (first compound 3.162 µM) was 0.253; in assay [1] (first compound 10 µM) it was 0.285; in assay [1] (first compound 31.62 µM) it was 0.233; in assay [1] (first compound 100 µM), 0.325; with Bromopyruvate + AZD7762 (first compound 1 µM), 0.318; with Bromopyruvate + AZD7762 (first compound 3.162 µM) it was 0.364. For the same cell line, the relative viability with Bromopyruvate + AZD7762 (first compound 10 µM) stood at 0.346; in the assay with Bromopyruvate + AZD7762 (first compound 31.62 µM), 0.362; with Bromopyruvate + AZD7762 (first compound 100 µM), 0.341; with Bicalutamide + Alpelisib (first compound 0.08 µM) it was 0.625; with Bicalutamide + Alpelisib (first compound 0.253 µM), 0.447; with Bicalutamide + Alpelisib (first compound 0.8 µM) it was 0.603. Moreover, in the assay with Bicalutamide + Alpelisib (first compound 2.53 µM), the relative viability worked out at 0.402.
